{"source": "paper PMC6667205", "about": "“Antitumor activity of novel pyrazole-based small molecular inhibitors of the STAT3 pathway in patient derived high grade glioma cells” (PLoS ONE, 2019)", "biological_target": "T1, STAT3 (Homo sapiens, UniProt P40763)", "T1 construct": "GST-STAT3", "T1 sequence (P40763 2-770)": "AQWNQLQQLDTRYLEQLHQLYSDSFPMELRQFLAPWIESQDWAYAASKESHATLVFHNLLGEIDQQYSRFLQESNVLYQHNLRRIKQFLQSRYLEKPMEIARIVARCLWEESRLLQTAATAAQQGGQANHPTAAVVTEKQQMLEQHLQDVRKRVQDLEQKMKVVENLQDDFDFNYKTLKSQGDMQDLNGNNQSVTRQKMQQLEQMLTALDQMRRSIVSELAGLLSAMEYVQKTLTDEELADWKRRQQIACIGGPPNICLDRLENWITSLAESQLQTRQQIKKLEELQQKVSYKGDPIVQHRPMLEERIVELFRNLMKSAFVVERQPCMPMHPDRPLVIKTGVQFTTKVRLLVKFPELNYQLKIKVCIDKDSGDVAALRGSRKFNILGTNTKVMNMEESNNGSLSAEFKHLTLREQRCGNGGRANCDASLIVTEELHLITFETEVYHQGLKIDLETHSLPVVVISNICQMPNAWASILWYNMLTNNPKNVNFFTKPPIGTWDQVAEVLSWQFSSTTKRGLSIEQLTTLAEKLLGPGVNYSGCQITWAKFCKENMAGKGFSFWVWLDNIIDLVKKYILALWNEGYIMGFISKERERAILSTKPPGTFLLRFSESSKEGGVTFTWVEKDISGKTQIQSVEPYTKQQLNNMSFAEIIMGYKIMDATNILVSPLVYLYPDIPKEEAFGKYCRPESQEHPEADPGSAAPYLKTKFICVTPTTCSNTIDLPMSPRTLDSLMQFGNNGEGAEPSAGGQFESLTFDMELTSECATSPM", "test": "TR-FRET displacement of fluorescent phosphopeptide (5-FAM-G(pY)LPQTVC-NH2) from GST-STAT3", "type": "binding", "data": [{"substance": "S3I-1757", "values": [{"measurement": "IC50", "value": "62.1 ± 6.1", "unit": "µM"}]}]}
